Structures can show the parent of a compound that is named as a salt. Peptide text beside a SMILES is read from it.
What follows are compounds tested on NCI-H292 lung cancer cells (assay: FDA drug screening, complete media vs cholesterol-free media with simvastatin (TABLE 2)). Conditions: NCI-H292 cells, cholesterol-free media with simvastatin 0.04 μM; cell growth value in FDA drug screen.
Assay type: cell-based, human

SMILES | Cholesterol-free media + simvastatin (0.04 μM)
CN1CC2c3ccccc3Oc3ccc(Cl)cc3C2C1 (centres unmarked) [Asenapine (hydrochloride)] | 1.244
CC(C)NCC(O)COc1ccc(CC(N)=O)cc1 (centres unmarked) [Atenolol] | 0.9412
CNCC[C@@H](Oc1ccccc1C)c1ccccc1 [Atomoxetine (hydrochloride)] | 1.776
NC(=O)[C@@H]1CC[C@@H]2CN1C(=O)N2OS(=O)(=O)O [Avibactam (sodium)] | 1.031
CN1C(=O)COc2c(C(=O)NC3CN4CCC3CC4)cc(Cl)cc21 (centres unmarked) [Azasetron (hydrochloride)] | 0.9264

Same assay, conditions: NCI-H292 cells, complete media; cell growth value in FDA drug screen

SMILES | Complete Media
CN1CC2c3ccccc3Oc3ccc(Cl)cc3C2C1 (centres unmarked) [Asenapine (hydrochloride)] | 1.302
CC(C)NCC(O)COc1ccc(CC(N)=O)cc1 (centres unmarked) [Atenolol] | 1.006
CNCC[C@@H](Oc1ccccc1C)c1ccccc1 [Atomoxetine (hydrochloride)] | 1.803
NC(=O)[C@@H]1CC[C@@H]2CN1C(=O)N2OS(=O)(=O)O [Avibactam (sodium)] | 1.132
CN1C(=O)COc2c(C(=O)NC3CN4CCC3CC4)cc(Cl)cc21 (centres unmarked) [Azasetron (hydrochloride)] | 0.9552

Same assay, conditions: NCI-H292 cells, drug in cholesterol-free media with simvastatin 0.04 μM

SMILES | Cholesterol-free media + simvastatin (0.04 μM)
CN1CC2c3ccccc3Oc3ccc(Cl)cc3C2C1 (centres unmarked) [Asenapine] | 0.918
COC(=O)[C@H](Cc1ccccc1)NC(=O)[C@@H](N)CC(=O)O [Aspartame] (HELM PEPTIDE1{D.F.[CO[*:1]]}$$$$V2.0) | 1.165
CC(=O)Oc1ccccc1C(=O)O [Aspirin] | 1.19
CCCCN(CCCC)C(=O)CN1C[C@H](c2ccc3c(c2)OCO3)[C@@H](C(=O)O)[C@@H]1c1ccc(OC)cc1 [Atrasentan (hydrochloride)] | 1.092
C[N+]1(C)[C@@H]2CC[C@H]1C[C@@H](OC(=O)C(CO)c1ccccc1)C2 (some centres unmarked) [Atropine methyl bromide] | 1.143
COc1ccc(CN=c2[nH]c(N3CCC[C@H]3CO)ncc2C(=O)NCc2ncccn2)cc1Cl [Avanafil] | 1.12
CNC(=O)c1ccccc1Sc1ccc2c(/C=C/c3ccccn3)n[nH]c2c1 [Axitinib] | 0.9239

Same assay, conditions: NCI-H292 cells, drug in complete media

SMILES | Complete Media
CN1CC2c3ccccc3Oc3ccc(Cl)cc3C2C1 (centres unmarked) [Asenapine] | 0.7002
COC(=O)[C@H](Cc1ccccc1)NC(=O)[C@@H](N)CC(=O)O [Aspartame] (HELM PEPTIDE1{D.F.[CO[*:1]]}$$$$V2.0) | 0.9998
CC(=O)Oc1ccccc1C(=O)O [Aspirin] | 0.9812
CCCCN(CCCC)C(=O)CN1C[C@H](c2ccc3c(c2)OCO3)[C@@H](C(=O)O)[C@@H]1c1ccc(OC)cc1 [Atrasentan (hydrochloride)] | 0.8532
C[N+]1(C)[C@@H]2CC[C@H]1C[C@@H](OC(=O)C(CO)c1ccccc1)C2 (some centres unmarked) [Atropine methyl bromide] | 0.9562
COc1ccc(CN=c2[nH]c(N3CCC[C@H]3CO)ncc2C(=O)NCc2ncccn2)cc1Cl [Avanafil] | 0.9091
CNC(=O)c1ccccc1Sc1ccc2c(/C=C/c3ccccn3)n[nH]c2c1 [Axitinib] | 0.7152

Same assay, conditions: complete media minus cholesterol-free media + simvastatin; >0 enhanced anti-cancer activity, about 0 neutral, <0 antagonist

SMILES | Difference
CN1CC2c3ccccc3Oc3ccc(Cl)cc3C2C1 (centres unmarked) [Asenapine (hydrochloride)] | 0.06
CC(C)NCC(O)COc1ccc(CC(N)=O)cc1 (centres unmarked) [Atenolol] | 0.06
CNCC[C@@H](Oc1ccccc1C)c1ccccc1 [Atomoxetine (hydrochloride)] | 0.03
NC(=O)[C@@H]1CC[C@@H]2CN1C(=O)N2OS(=O)(=O)O [Avibactam (sodium)] | 0.10
CN1C(=O)COc2c(C(=O)NC3CN4CCC3CC4)cc(Cl)cc21 (centres unmarked) [Azasetron (hydrochloride)] | 0.03

Same assay, conditions: complete media vs cholesterol-free media + simvastatin (0.04 μM); >0 enhanced anti-cancer activity, about 0 neutral, <0 antagonist

SMILES | Difference
CN1CC2c3ccccc3Oc3ccc(Cl)cc3C2C1 (centres unmarked) [Asenapine] | −0.22
COC(=O)[C@H](Cc1ccccc1)NC(=O)[C@@H](N)CC(=O)O [Aspartame] (HELM PEPTIDE1{D.F.[CO[*:1]]}$$$$V2.0) | −0.17
CC(=O)Oc1ccccc1C(=O)O [Aspirin] | −0.21
CCCCN(CCCC)C(=O)CN1C[C@H](c2ccc3c(c2)OCO3)[C@@H](C(=O)O)[C@@H]1c1ccc(OC)cc1 [Atrasentan (hydrochloride)] | −0.24
C[N+]1(C)[C@@H]2CC[C@H]1C[C@@H](OC(=O)C(CO)c1ccccc1)C2 (some centres unmarked) [Atropine methyl bromide] | −0.19
COc1ccc(CN=c2[nH]c(N3CCC[C@H]3CO)ncc2C(=O)NCc2ncccn2)cc1Cl [Avanafil] | −0.21
CNC(=O)c1ccccc1Sc1ccc2c(/C=C/c3ccccn3)n[nH]c2c1 [Axitinib] | −0.21

Each compound was assayed on NCI-H292 lung cancer cells (assay: FDA drug screening, complete media vs cholesterol-free media without statin (TABLE 1)). Conditions: Complete minus Cholesterol-free; >0 enhanced anti-cancer activity, about 0 neutral, <0 antagonist.
Assay type: cell-based, human

SMILES | Difference
COC(=O)[C@H](Cc1ccccc1)NC(=O)[C@@H](N)CC(=O)O [Aspartame] (HELM PEPTIDE1{D.F.[CO[*:1]]}$$$$V2.0) | −0.06
CC(C)NCC(O)COc1ccc(CC(N)=O)cc1 (centres unmarked) [Atenolol] | −0.26
COc1ccc(CN=c2[nH]c(N3CCC[C@H]3CO)ncc2C(=O)NCc2ncccn2)cc1Cl [Avanafil] | −0.27
CN1C(=O)COc2c(C(=O)NC3CN4CCC3CC4)cc(Cl)cc21 (centres unmarked) [Azasetron (hydrochloride)] | −0.07

Same assay, conditions: Complete minus Cholesterol-free; greater than 0 enhanced anti-cancer activity, about 0 neutral, below 0 antagonist

SMILES | Difference
CCCCN(CCCC)C(=O)CN1C[C@H](c2ccc3c(c2)OCO3)[C@@H](C(=O)O)[C@@H]1c1ccc(OC)cc1 [Atrasentan (hydrochloride)] | −0.17

Same assay, conditions: Complete minus Cholesterol-free; greater than 0 enhanced anti-cancer activity, about 0 neutral, below 0 antagonists

SMILES | Difference
CNCC[C@@H](Oc1ccccc1C)c1ccccc1 [Atomoxetine (hydrochloride)] | −0.68
NC(=O)[C@@H]1CC[C@@H]2CN1C(=O)N2OS(=O)(=O)O [Avibactam (sodium)] | −0.74

Same assay, conditions: NCI-H292 cells in cholesterol-free media without statin

SMILES | Cholesterol-free
CNCC[C@@H](Oc1ccccc1C)c1ccccc1 [Atomoxetine (hydrochloride)] | 1.663
NC(=O)[C@@H]1CC[C@@H]2CN1C(=O)N2OS(=O)(=O)O [Avibactam (sodium)] | 1.514

Same assay, conditions: NCI-H292 cells in complete media

SMILES | Complete
CNCC[C@@H](Oc1ccccc1C)c1ccccc1 [Atomoxetine (hydrochloride)] | 0.988
NC(=O)[C@@H]1CC[C@@H]2CN1C(=O)N2OS(=O)(=O)O [Avibactam (sodium)] | 0.7743

Same assay, conditions: NCI-H292 cells, FDA drug library screen, cholesterol-free media without statin

SMILES | Cholesterol-free
CCCCN(CCCC)C(=O)CN1C[C@H](c2ccc3c(c2)OCO3)[C@@H](C(=O)O)[C@@H]1c1ccc(OC)cc1 [Atrasentan (hydrochloride)] | 1.198

Same assay, conditions: NCI-H292 cells, FDA drug library screen, complete media

SMILES | Complete
CCCCN(CCCC)C(=O)CN1C[C@H](c2ccc3c(c2)OCO3)[C@@H](C(=O)O)[C@@H]1c1ccc(OC)cc1 [Atrasentan (hydrochloride)] | 1.025

Same assay, conditions: NCI-H292 cells, cholesterol-free media without statin

SMILES | Cholesterol-free
CN1CC2c3ccccc3Oc3ccc(Cl)cc3C2C1 (centres unmarked) [Asenapine] | 1.636
CC(=O)Oc1ccccc1C(=O)O [Aspirin] | 1.474
CC(C)NCC(O)COc1ccc(CC(N)=O)cc1 (centres unmarked) [Atenolol] | 1.429
COc1ccc(CN=c2[nH]c(N3CCC[C@H]3CO)ncc2C(=O)NCc2ncccn2)cc1Cl [Avanafil] | 0.9577

Same assay, conditions: NCI-H292 cells, cholesterol-free media without statin, FDA drug library screen

SMILES | Cholesterol-free
CN1CC2c3ccccc3Oc3ccc(Cl)cc3C2C1 (centres unmarked) [Asenapine (hydrochloride)] | 1.288
COC(=O)[C@H](Cc1ccccc1)NC(=O)[C@@H](N)CC(=O)O [Aspartame] (HELM PEPTIDE1{D.F.[CO[*:1]]}$$$$V2.0) | 1.044
C[N+]1(C)[C@@H]2CC[C@H]1C[C@@H](OC(=O)C(CO)c1ccccc1)C2 (some centres unmarked) [Atropine methyl bromide] | 1.114
CNC(=O)c1ccccc1Sc1ccc2c(/C=C/c3ccccn3)n[nH]c2c1 [Axitinib] | 0.7104
CN1C(=O)COc2c(C(=O)NC3CN4CCC3CC4)cc(Cl)cc21 (centres unmarked) [Azasetron (hydrochloride)] | 0.8277

Same assay, conditions: NCI-H292 cells, complete media

SMILES | Complete
CN1CC2c3ccccc3Oc3ccc(Cl)cc3C2C1 (centres unmarked) [Asenapine] | 1.303
CC(=O)Oc1ccccc1C(=O)O [Aspirin] | 1.02
COc1ccc(CN=c2[nH]c(N3CCC[C@H]3CO)ncc2C(=O)NCc2ncccn2)cc1Cl [Avanafil] | 0.6848

Same assay, conditions: NCI-H292 cells, complete media, FDA drug library screen

SMILES | Complete
CN1CC2c3ccccc3Oc3ccc(Cl)cc3C2C1 (centres unmarked) [Asenapine (hydrochloride)] | 1.388
COC(=O)[C@H](Cc1ccccc1)NC(=O)[C@@H](N)CC(=O)O [Aspartame] (HELM PEPTIDE1{D.F.[CO[*:1]]}$$$$V2.0) | 0.9887
C[N+]1(C)[C@@H]2CC[C@H]1C[C@@H](OC(=O)C(CO)c1ccccc1)C2 (some centres unmarked) [Atropine methyl bromide] | 1.708
CNC(=O)c1ccccc1Sc1ccc2c(/C=C/c3ccccn3)n[nH]c2c1 [Axitinib] | 1.034
CN1C(=O)COc2c(C(=O)NC3CN4CCC3CC4)cc(Cl)cc21 (centres unmarked) [Azasetron (hydrochloride)] | 0.7612

Same assay, conditions: complete vs cholesterol-free media; >0 enhanced anti-cancer activity, about 0 neutral, <0 antagonist

SMILES | Difference
CN1CC2c3ccccc3Oc3ccc(Cl)cc3C2C1 (centres unmarked) [Asenapine (hydrochloride)] | 0.10
C[N+]1(C)[C@@H]2CC[C@H]1C[C@@H](OC(=O)C(CO)c1ccccc1)C2 (some centres unmarked) [Atropine methyl bromide] | 0.59
CNC(=O)c1ccccc1Sc1ccc2c(/C=C/c3ccccn3)n[nH]c2c1 [Axitinib] | 0.32

Same assay, conditions: complete vs cholesterol-free media; greater than 0 enhanced anti-cancer activity, about 0 neutral, below 0 antagonists

SMILES | Difference
CN1CC2c3ccccc3Oc3ccc(Cl)cc3C2C1 (centres unmarked) [Asenapine] | −0.33
CC(=O)Oc1ccccc1C(=O)O [Aspirin] | −0.45

From patent US20250144067A1, “PERSONALIZED STARVATION THERAPY FOR CANCER” (Faeth Therapeutics, Inc., priority 2021, published 2025)
